Experimental data reported in US10408836B2 (priority 2013, dated 2019).

Legend:
NanA of S. pneumoniae = type: biochemical; conditions: pH 7
NA of influenza = type: biochemical; conditions: pH 7
[1] = biological target: A/Brisbane/10/07-Like (H3N2/07-S) neuraminidase (Influenza A virus, UniProt A8W8R2); type: biochemical; conditions: pH 7, 25000 µM
[2] = biological target: B/Brisbane/60/08 (Vict/06-S) neuraminidase (Influenza B virus, UniProt C0LT34); test: biochemical; conditions: pH 7, read-out: % of max NA act. + EDTA (pH)
[3] = biological target: B/Florida/04/06 (Yama/08-S) neuraminidase (Influenza B virus, UniProt J7JZU5); test: biochemical; conditions: pH 7, read-out: % of max NA act. + EDTA (pH)
[4] = biological target: A/North Carolina/39/09 (H1N1pdm/09-R) neuraminidase (Influenza A virus, UniProt C3W6G3); conditions: pH 6, 25000 µM
[5] = biological target: A/Brisbane/59/07-Like (H1N1/07-R) neuraminidase (Influenza A virus, UniProt D5F1R0); conditions: pH 6, 25000 µM
[6] = biological target: A/Florida/21/08 (H1N1/08-R) neuraminidase (Influenza A virus, UniProt G3LYR2); conditions: pH 6, 25000 µM
[7] = biological target: Recombinant N1 protein A/California/04/09 (N1pdm/09-R) (Influenza A virus (H1N1), UniProt C3W5S3); conditions: pH 6, 25000 µM
[8] = biological target: A/Texas/12/07 (H3N2/07-R) neuraminidase (Influenza A virus, UniProt D1FVK3)
[9] = biological target: B/Memphis/20/96 (Vict/96-R) neuraminidase (Influenza B virus, UniProt C7FPS7); conditions: pH 7, 25000 µM
[10] = biological target: Parainfluenza virus Type 2 NA (Human parainfluenza 2 virus, UniProt P25465); conditions: pH 5
[11] = biological target: S. pneumoniae ATCC 6305 (Strep 6) NanA (Streptococcus pneumoniae, UniProt P62575); conditions: pH 7
[12] = biological target: S. pneumoniae ATCC 49619 (Strep 4) NanA (Streptococcus pneumoniae, UniProt P62575); conditions: pH 7
[13] = biological target: A/California/07/09 (H1N1pdm/09-S) neuraminidase (Influenza A virus, UniProt C3W6G3); test: biochemical; conditions: pH 6, read-out: % of max NA act. + EDTA (pH)
[14] = biological target: Recombinant N1 protein A/California/04/09 (N1pdm/09-S) (Influenza A virus (H1N1), UniProt C3W5S3); test: biochemical; conditions: pH 6, read-out: % of max NA act. + EDTA (pH)
[15] = biological target: Recombinant N1 protein A/Anhui/01/05 (N1/05-S) (Influenza A virus, UniProt D0PQ82); test: biochemical; conditions: pH 6, read-out: % of max NA act. + EDTA (pH)
influenza virus = type: binding
H3N2/07-R = type: binding, influenza A

Molecule: O=S(=O)(O)CCCNC1CCCCC1 [CAPS, N-cyclohexyl-3-aminopropanesulfonic acid]
- NanA inhibition by sulfonic acid-containing buffer (NanA of S. pneumoniae): susceptibility to CHES and CAPS inhibition

Molecule: O=S(=O)(O)CCNC1CCCCC1 [CHES, N-cyclohexyl-2-aminoethanesulfonic acid]
- NA enzymatic activity of influenza in presence of buffer (NA of influenza): substantially resistant
- NanA activity of S. pneumoniae in presence of buffer (NanA of S. pneumoniae): severely reduced
- NanA inhibition by sulfonic acid-containing buffer (NanA of S. pneumoniae): susceptibility to CHES and CAPS inhibition

Molecule: O=C(O)CN(CCN(CC(=O)O)CC(=O)O)CC(=O)O [EDTA, ethylenediaminetetraacetic acid]
- % of max NA act. + EDTA (pH) [1]: 50%
- activity at 25000 µM [2]: 92%
- activity at 25000 µM [3]: 88%
- % of max NA act. + EDTA (pH) [4]: 63%
- % of max NA act. + EDTA (pH) [5]: 54%
- % of max NA act. + EDTA (pH) [6]: 36%
- % of max NA act. + EDTA (pH) [7]: 94%
- % of max NA act. + EDTA (pH) ([8]; pH 7, 25000 µM): 61%
- % of max NA act. + EDTA (pH) [9]: 25%
- % of max NA act. + EDTA (pH) [10]: 27%
- % of max NA act. + EDTA (pH) [11]: 112%
- % of max NA act. + EDTA (pH) [12]: 108%
- activity at 25000 µM [13]: 44%
- activity at 25000 µM [14]: 94%
- activity at 25000 µM [15]: 43%

Molecule: CC(=O)N[C@H]1[C@H]([C@H](O)[C@H](O)CO)OC(C(=O)O)=C[C@@H]1N=C(N)N [Zan, Zanamivir]
- IC50 [8]: 2.6 nM

Molecule: MBL: mannose-binding lectin, recombinant host protein used as capturing agent
- limit of detection: virus dilution at which virus is captured (influenza virus): 270-450 fold dilution
- viral capture, ranking of receptors (influenza virus): best capturing factor among all mannose binding receptors
- limit of detection: virus dilution (H3N2/07-R): 450 fold dilution

B1: Fetuin: highly sialylated protein isolated from bovine serum, used as capturing agent (protein, UniProt P12763 19-359, looked up)
Alpha-2-HS-glycoprotein: IPLDPVAGYKEPACDDPDTEQAALAAVDYINKHLPRGYKHTLNQIDSVKVWPRRPTGEVYDIEIDTLETTCHVLDPTPLANCSVRQQTQHAVEGDCDIHVLKQDGQFSVLFTKCDSSPDSAEDVRKLCPDCPLLAPLNDSRVVHAVEVALATFNAESNGSYLQLVEISRAQFVPLPVSVSVEFAVAATDCIAKEVVDPTKCNLLAEKQYGFCKGSVIQKALGGEDVRVTCTLFQTQPVIPQPQPDGAEAEAPSAVPDAAGPTPSAAGPPVASVVVGPSVVAVPLPLHRAHYDLRHTFSGVASVESSSGEAFHVGKTPIVGQPSIPGGPVRLCPGRIRYFKI
- limit of detection: virus dilution at which virus is captured (influenza virus): 150-450 fold dilution
- limit of detection: virus dilution (H3N2/07-R): 30 fold dilution
